Earlier results in US20240382500A1, “DOPAMINE RECEPTOR AGONISTS OR ANGIOTENSIN RECEPTOR BLOCKERS OR COMBINATIONS THEREOF FOR COVID-19 SEQUELAE” (priority 2023, published 2024).

Assays:
[1] = 250 mg/day, characterized as a low dose
[2] = tested on: natural killer cells (NKCs)
[3] = in vivo
[4] = dosages up to 15 mg/day, subjects with early-stage Parkinson's disease

Structure (SMILES): Oc1cc2c(cc1O)C(c1ccccc1)CNCC2 (centres unmarked) [SKF38393]
- tolerability in preclinical studies: well tolerated
- clinical benefit in schizophrenia [1]: failed to show a clinical benefit
- NKC cytotoxicity [2]: augments

Structure (SMILES): CCOc1nc2cccc(C(=O)O)c2n1Cc1ccc(-c2ccccc2-c2nn[nH]n2)cc1 [Candesartan]
- microglial phagocytosis (microglia): strengthens
- action of ANG II on ICAM-1 (ICAM-1): inhibit
- HMGB1 (HMGB1): lower

Structure (SMILES): Cc1cc(Oc2ncccc2C(F)(F)F)ccc1-c1c(C)c(=O)[nH]c(=O)n1C [PF-06649751]
- safety and tolerability in human subjects [3]: safe and well tolerated
- motor symptoms [4]: significant improvement
